Assay [1] addresses IRAK4 auto-phosphorylation (Homo sapiens (Human), UniProt Q9NWZ3). As to the kind of experiment: IRAK4 phosphorylation cell assay in IL-1β-stimulated Karpas-299 cells. Format: cell-based. The following applies: IL-1β 22.7 ng/mL, pIRAK4 (Thr345/Ser346), geometric mean of at least 2 experiments. How it is done: IRAK4 Phosphorylation Cell Assay
The activation of IRAK4 by TLR or IL-1R ligands leads to IRAK4 auto-phosphorylation, which can be prevented by IRAK4 kinase inhibitors. The effect of IRAK4 inhibitor compounds on IRAK4 auto-phosphorylation was assessed in IL-1β-stimulated Karpas-299 cells as a measurement of cellular potency. Karpas-299 cells were cultured in RPMI 1640 (Gibco 61870-010) containing 10% FBS (Gibco #10270). Cells were plated at 2×10^4 cells per well in poly-D-lysine coated 384 well plates (Corning #356663) to which compounds had been added at various concentrations (10 point half log dose response with a final top concentration of 30 μM) using an Echo 655 (Labcyte Inc). Cells were centrifuged (250 g, 4 mins), incubated at 37° C. for 1 h, then stimulated with 22.7 ng/mL recombinant IL-1β (R&D Systems, #201-LB-025) at 37° C. for 10 mins, followed by fixation in 4% paraformaldehyde for 10 mins and permeabilization in ice-cold 70% MeOH for 30 mins. Cells were washed twice with phosphate-buffered saline (PBS) on a BlueWasher (BlueCatBio) then blocked with PBS containing 10% FBS for 20 mins. Blocking solution was removed with a BlueWasher and cells were stained with anti-pIRAK4 (Thr345/Ser346) (CST, #11927, 1:400) in blocking buffer with 0.05% Tween-20 for 1 h, then washed twice with PBS containing 0.05% Tween-20 on a BlueWasher, followed by staining with a Alexa 647-conjugated secondary anti-rabbit IgG antibody (CST, #4414, 1:2,000) and Hoechst 33342 (Sigma, 1:2,000) in blocking buffer with 0.05% Tween-20 for 30 mins. Finally, the cells were washed twice with PBS containing 0.05% Tween-20 and imaged on an ImageXpress Micro (Molecular Devices) with a 10× air objective using the appropriate filters. Images were analysed in Columbus (PerkinElmer) and the fluorescence intensity per cell from the secondary antibody was quantified. The quantified data were analysed in Genedata Screener 15 (Genedata AG). […] IC50 values are the geometric mean of at least 2 experiments.

Assay [2] has as its target human recombinant IRAK4 protein (Homo sapiens (Human), UniProt Q9NWZ3). The assay can be described thus: IRAK4 enzyme assay (mass spectrometry readout). Format: biochemical. Conditions: 3 mM ATP, 0.2 nM enzyme; geometric mean of at least n=2, * single experiment. How it is done: Potency of IRAK4 Inhibitor Compounds in IRAK4 Enzyme Assay
The inhibitory activity of compounds against IRAK4 were determined in an enzymatic assay using mass spectrometry readout. Ten point half-log compound concentration response curves, with a top concentration of 1 μM or 10 μM, were generated from 10 mM stocks of compound solubilized in DMSO using an Echo 655 (Labcyte Inc) and added to 384 well assay plates (Greiner #781280). To the assay plates, 10 μL of human recombinant IRAK4 protein (Life Technologies #PV4002) diluted to a final concentration of 0.2 nM in assay buffer (50 mM Tris-HCl pH 7.4, 10 mM MgCl, 5 mM glutathione, 0.01% BSA, 3 mM ATP) was added. The enzyme was incubated with the compounds at room temperature for 15 minutes before a peptide substrate ([…], Innovagen custom synthesis, 10 mM in DMSO) was added to each well to a final concentration of 10 μM using an Echo 655 (Labcyte Inc). After two hours at room temperature, the reaction was stopped with 90 μL of 0.4% formic acid (Merck #33015). The unphosphorylated and phosphorylated peptide were measured by LC-MS/MS on a Waters TQ-S mass spectrometer. Peaks were integrated using the TargetLynx software and the ratios between phosphorylated and unphosphorylated peptides were calculated. Curves were fitted and compound potencies determined in Genedata Screener 15 (Genedata AG). Data presented are the geometric mean of at least n=2, or as denoted by an * are obtained from a single experiment.

As a reminder, the IC50 is the concentration that gives 50% inhibition.

Chain of human recombinant IRAK4 protein (Q9NWZ3 whole entry): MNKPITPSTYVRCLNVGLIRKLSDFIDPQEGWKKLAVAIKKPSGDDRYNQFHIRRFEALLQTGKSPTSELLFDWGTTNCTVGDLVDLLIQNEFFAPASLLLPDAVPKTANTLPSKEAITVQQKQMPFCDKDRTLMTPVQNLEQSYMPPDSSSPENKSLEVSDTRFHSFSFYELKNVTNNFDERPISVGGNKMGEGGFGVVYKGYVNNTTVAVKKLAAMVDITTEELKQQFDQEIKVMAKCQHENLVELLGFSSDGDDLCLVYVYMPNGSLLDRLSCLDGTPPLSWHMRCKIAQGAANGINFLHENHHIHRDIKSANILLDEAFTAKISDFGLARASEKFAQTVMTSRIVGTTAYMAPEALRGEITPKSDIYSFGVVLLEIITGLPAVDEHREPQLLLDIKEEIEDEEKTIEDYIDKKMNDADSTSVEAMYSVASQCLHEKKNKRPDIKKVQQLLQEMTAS
Chain of IRAK4 auto-phosphorylation (Q9NWZ3 whole entry): as above

Turning to `COc1cc2nn([C@@H]3CC[C@H](O)[C@@H](C)C3)cc2cc1C(=O)Nc1cnc2cccnn12` (single isomer, unassigned) [Example 82], the IC50 in assay [1] turned out to be 0.027 µM; in assay [2] it was 0.0024 µM.

With `COc1cc2nn(C3CCC4(CC3)COCC(=O)N4C)cc2cc1C(=O)Nc1cnn2cccnc12` (single isomer, unassigned) [Example 119, 6-Methoxy-2-(1-methyl-2-oxo-4-oxa-1-azaspiro[5.5]undecan-9-yl)-N-(pyrazolo[1,5-a]pyrimidin-3-yl)-2H-indazole-5-carboxamide], the IC50 was 0.016 µM in assay [1] and 0.0005 µM in assay [2].

`COc1cc2nn(C3CCC(C)(O)CC3)cc2cc1C(=O)Nc1cnc2cccnn12` (single isomer, unassigned) [Example 49, 2-(4-Hydroxy-4-methylcyclohexyl)-N-(imidazo[1,2-b]pyridazin-3-yl)-6-methoxy-2H-indazole-5-carboxamide]: the half-maximal inhibitory concentration (IC50) amounted to 0.046 µM in assay [1] and 0.0061 µM in assay [2].

In the case of `COc1cc2nn([C@H]3CCC[C@H](O)[C@@H]3C)cc2cc1C(=O)Nc1cnc2cccnn12` (relative stereo) [Example 107, rel-2-(1S,2R,3S)-3-Hydroxy-2-methylcyclohexyl)-N-(imidazo[1,2-b]pyridazin-3-yl)-6-methoxy-2H-indazole-5-carboxamide], the figures for the IC50 in assay [1] and in assay [2] were 0.024 µM and 0.0009 µM, respectively.

Take `COc1cc2nn([C@H]3CC[C@H](n4ccnn4)CC3)cc2cc1C(=O)Nc1cnc2cccnn12` [Example 102, 2-((1r,4r)-4-(1H-1,2,3-triazol-1-yl)cyclohexyl)-N-(imidazo[1,2-b]pyridazin-3-yl)-6-methoxy-2H-indazole-5-carboxamide]: the IC50 in assay [1] turned out to be 0.019 µM; in assay [2] it was 0.0007 µM. Taken in the same sequence, the figures for `COc1cc2nn([C@H]3CCC[C@@H](O)[C@H]3C)cc2cc1C(=O)Nc1cnc2cccnn12` (single isomer, unassigned) [Example 105] were 0.096 µM and 0.0065 µM. In the case of `COc1cc2nn([C@@H]3CC[C@]4(CC(=O)N(C)C4)C[C@H]3C)cc2cc1C(=O)Nc1cnc2cccnn12` (relative stereo) [Example 71, rel-2-(5R,7R,8R)-2,7-Dimethyl-3-oxo-2-azaspiro[4.5]decan-8-yl)-N-(imidazo[1,2-b]pyridazin-3-yl)-6-methoxy-2H-indazole-5-carboxamide or rel-2-(5R,7S,8S)-2,7-Dimethyl-3-oxo-2-azaspiro[4.5]decan-8-yl)-N-(imidazo[1,2-b]pyridazin-3-yl)-6-methoxy-2H-indazole-5-carboxamide], the IC50 in assay [1] worked out at 0.03 µM; in assay [2], 0.0019 µM. In the same order, the values of `COc1cc2nn(C3CCC(N(C)C(=O)[C@H]4C[C@H](O)C4)CC3)cc2cc1C(=O)Nc1cnn2cccnc12` (stereo partly drawn) [Example 97, 2-((1R,4r)-4-((1r,3R)-3-hydroxy-N-methylcyclobutane-1-carboxamido)cyclohexyl)-6-methoxy-N-(pyrazolo[1,5-a]pyrimidin-3-yl)-2H-indazole-5-carboxamide] are 0.015 µM and 0.0007 µM.

In the case of `COc1cc2nn(C3CCC4(CC3)COC(=O)N4C)cc2cc1C(=O)Nc1cnc2cccnn12` (single isomer, unassigned) [Example 75, N-(Imidazo[1,2-b]pyridazin-3-yl)-6-methoxy-2-(1-methyl-2-oxo-3-oxa-1-azaspiro[4.5]decan-8-yl)-2H-indazole-5-carboxamide], the IC50 in assay [1] stood at 0.012 µM; in assay [2] it was 0.0003 µM.

As for `COc1cc2nn([C@H]3CCC(N(C)C(C)=O)C[C@@H]3C)cc2cc1C(=O)Nc1cnn2cccnc12` (single isomer, unassigned) [Example 62, 6-methoxy-2-((1S,2S,4R*)-2-methyl-4-(N-methylacetamido)cyclohexyl)-N-(pyrazolo[1,5-a]pyrimidin-3-yl)-2H-indazole-5-carboxamide], the IC50 worked out at 0.185 µM in assay [1] and 0.016 µM in assay [2]. Taken in the same sequence, the figures for `COc1cc2nn([C@H]3CCC[C@@H](O)[C@@H]3C)cc2cc1C(=O)Nc1cnc2cccnn12` (single isomer, unassigned) [Example 108] were 0.016 µM and 0.0004 µM.

On to `COc1cc2nn([C@@H]3CCC(N(C)C(C)=O)C[C@H]3C)cc2cc1C(=O)Nc1cnn2cccnc12` (single isomer, unassigned) [Example 60], for which the results for the IC50 in assay [1] and in assay [2] were 0.021 µM and 0.0008 µM, respectively. Regarding `COc1cc2nn(C3CCC(C)(O)CC3)cc2cc1C(=O)Nc1cnc2cccnn12` (single isomer, unassigned) [Example 48, 2-(4-Hydroxy-4-methylcyclohexyl)-N-(imidazo[1,2-b]pyridazin-3-yl)-6-methoxy-2H-indazole-5-carboxamide], the IC50 in assay [1] was determined as 0.017 µM; in assay [2] it was 0.0007 µM.

`COc1cc2nn(C3CCC4(CC3)COCC(=O)N4C)cc2cc1C(=O)Nc1cnn2cccnc12` (single isomer, unassigned) [Example 118, 6-Methoxy-2-(1-methyl-2-oxo-4-oxa-1-azaspiro[5.5]undecan-9-yl)-N-(pyrazolo[1,5-a]pyrimidin-3-yl)-2H-indazole-5-carboxamide]: the IC50 is 0.199 µM in assay [1] and 0.0139 µM in assay [2]. On to `C[C@@]1(O)CCC[C@H](n2cc3cc(C(=O)Nc4cnn5cccnc45)c(OC4CC4)cc3n2)C1` (relative stereo) [Example 54, rel-6-cyclopropoxy-2-(1S,3R)-3-hydroxy-3-methylcyclohexyl)-N-(pyrazolo[1,5-a]pyrimidin-3-yl)-2H-indazole-5-carboxamide], for which, in assay [1], the IC50 is 0.025 µM. For the compound `COc1cc2nn([C@@H]3CC[C@]4(CCC(=O)N4C)C[C@H]3C)cc2cc1C(=O)Nc1cnc2cccnn12` (relative stereo) [Example 123, rel-2-(5S,7R,8R)-1,7-Dimethyl-2-oxo-1-azaspiro[4.5]decan-8-yl)-N-(imidazo[1,2-b]pyridazin-3-yl)-6-methoxy-2H-indazole-5-carboxamide], in assay [2], the IC50 worked out at 0.003 µM. Take `COc1cc2nn([C@H]3CC[C@H](N(C)C(=O)[C@H](C)O)CC3)cc2cc1C(=O)Nc1cnc2cccnn12` [Example 94, 2-((1S,4r)-4-((S)-2-Hydroxy-N-methylpropanamido)cyclohexyl)-N-(imidazo[1,2-b]pyridazin-3-yl)-6-methoxy-2H-indazole-5-carboxamide]: in assay [1], it took 0.01 µM to reach half-maximal inhibition (IC50). With `COc1cc2nn([C@@H]3CC[C@H](O)[C@H](C)C3)cc2cc1C(=O)Nc1cnc2cccnn12` (single isomer, unassigned) [Example 76], the IC50 in assay [2] came to 0.0023 µM.

`COc1cc2nn([C@H]3CC[C@H](N(C)C(=O)[C@@H]4CC[C@H](O)C4)CC3)cc2cc1C(=O)Nc1cnn2cccnc12` (relative stereo) [Example 115]: in assay [1], the midpoint of inhibition, the IC50, lay at 0.02 µM. Still for that read-out and setting: to `C[C@H]1C[C@H](O)CC[C@@H]1n1cc2cc(C(=O)Nc3cnn4cccnc34)c(OC3CC3)cc2n1` (relative stereo) [Example 42, rel-6-Cyclopropoxy-2-(1S,2S,4R)-4-hydroxy-2-methylcyclohexyl)-N-(pyrazolo[1,5-a]pyrimidin-3-yl)-2H-indazole-5-carboxamide] belongs 0.089 µM. `COc1cc2nn([C@H]3CC[C@@H](O)C[C@@H]3C)cc2cc1C(=O)Nc1cnn2cccnc12` (relative stereo) [Example 40] registered an IC50 in assay [1] of 0.158 µM.

`COc1cc2nn([C@H]3CCC[C@H](O)[C@@H]3C)cc2cc1C(=O)Nc1cnc2cccnn12` (relative stereo) [Example 106, rel-2-(1S,2R,3S)-3-Hydroxy-2-methylcyclohexyl)-N-(imidazo[1,2-b]pyridazin-3-yl)-6-methoxy-2H-indazole-5-carboxamide] displayed an IC50 in assay [1] of 0.015 µM.
